Legend:
Test in all cases: Competitive isoTOP-ABPP in situ (fragment-treated cells)
Type in all cases: cell-based
[1] = biological target: T1, cysteines in MDA-MB-231 and Ramos cells (Homo sapiens, UniProt Q9BR61); conditions: 200 μM, insitu
T1 sequence (Q9BR61 1-282): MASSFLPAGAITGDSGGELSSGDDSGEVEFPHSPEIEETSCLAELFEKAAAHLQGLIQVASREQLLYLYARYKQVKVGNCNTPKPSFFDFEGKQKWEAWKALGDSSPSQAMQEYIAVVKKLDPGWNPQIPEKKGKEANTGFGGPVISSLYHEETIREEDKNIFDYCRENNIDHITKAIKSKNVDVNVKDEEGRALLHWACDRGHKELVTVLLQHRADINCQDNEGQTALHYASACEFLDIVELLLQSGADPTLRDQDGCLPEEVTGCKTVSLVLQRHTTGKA

[2] = biological target: T2, cysteines in MDA-MB-231 and Ramos cells (Homo sapiens, UniProt Q99798); conditions: 200 μM, insitu, 231
T2 sequence (Q99798 28-780): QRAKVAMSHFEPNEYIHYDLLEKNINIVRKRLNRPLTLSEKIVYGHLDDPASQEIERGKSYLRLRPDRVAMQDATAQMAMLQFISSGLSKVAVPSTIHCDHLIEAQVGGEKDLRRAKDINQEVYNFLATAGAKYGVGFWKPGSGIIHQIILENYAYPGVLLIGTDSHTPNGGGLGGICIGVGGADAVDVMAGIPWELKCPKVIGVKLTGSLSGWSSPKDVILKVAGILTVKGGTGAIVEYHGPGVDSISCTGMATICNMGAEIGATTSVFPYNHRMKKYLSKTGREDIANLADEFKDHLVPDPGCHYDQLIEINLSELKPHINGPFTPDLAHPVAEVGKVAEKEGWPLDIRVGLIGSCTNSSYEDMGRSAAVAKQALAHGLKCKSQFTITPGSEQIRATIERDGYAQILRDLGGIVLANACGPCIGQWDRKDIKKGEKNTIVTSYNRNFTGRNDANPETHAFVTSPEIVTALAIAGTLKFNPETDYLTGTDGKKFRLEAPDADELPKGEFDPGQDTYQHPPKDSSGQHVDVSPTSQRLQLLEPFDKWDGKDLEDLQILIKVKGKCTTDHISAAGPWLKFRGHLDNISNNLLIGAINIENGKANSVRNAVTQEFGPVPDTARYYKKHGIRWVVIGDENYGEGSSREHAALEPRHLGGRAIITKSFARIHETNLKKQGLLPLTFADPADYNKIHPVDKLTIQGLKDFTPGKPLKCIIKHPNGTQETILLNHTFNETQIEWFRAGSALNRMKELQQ

[3] = biological target: T3, cysteines in MDA-MB-231 and Ramos cells (Homo sapiens, UniProt Q8N2W9); conditions: 200 μM, insitu
T3 sequence (Q8N2W9 1-510): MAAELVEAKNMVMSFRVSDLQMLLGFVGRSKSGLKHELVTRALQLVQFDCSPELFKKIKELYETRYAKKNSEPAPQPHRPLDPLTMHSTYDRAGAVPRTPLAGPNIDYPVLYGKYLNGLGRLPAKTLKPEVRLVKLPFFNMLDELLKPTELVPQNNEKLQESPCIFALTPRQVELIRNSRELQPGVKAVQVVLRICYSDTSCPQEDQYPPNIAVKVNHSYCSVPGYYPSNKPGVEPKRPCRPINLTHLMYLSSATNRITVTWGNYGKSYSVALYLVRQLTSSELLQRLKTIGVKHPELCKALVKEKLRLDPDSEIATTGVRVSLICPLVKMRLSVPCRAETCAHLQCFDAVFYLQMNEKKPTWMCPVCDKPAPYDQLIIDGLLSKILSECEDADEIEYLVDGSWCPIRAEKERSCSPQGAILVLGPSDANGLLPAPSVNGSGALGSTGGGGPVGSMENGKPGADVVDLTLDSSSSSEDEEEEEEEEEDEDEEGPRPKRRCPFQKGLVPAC

[4] = biological target: cysteines in MDA-MB-231 and Ramos cells (Homo sapiens, UniProt Q6PCB5); conditions: 200 μM, insitu
Sequence of cysteines in MDA-MB-231 and Ramos cells (Homo sapiens, UniProt Q6PCB5) (Q6PCB5 whole entry): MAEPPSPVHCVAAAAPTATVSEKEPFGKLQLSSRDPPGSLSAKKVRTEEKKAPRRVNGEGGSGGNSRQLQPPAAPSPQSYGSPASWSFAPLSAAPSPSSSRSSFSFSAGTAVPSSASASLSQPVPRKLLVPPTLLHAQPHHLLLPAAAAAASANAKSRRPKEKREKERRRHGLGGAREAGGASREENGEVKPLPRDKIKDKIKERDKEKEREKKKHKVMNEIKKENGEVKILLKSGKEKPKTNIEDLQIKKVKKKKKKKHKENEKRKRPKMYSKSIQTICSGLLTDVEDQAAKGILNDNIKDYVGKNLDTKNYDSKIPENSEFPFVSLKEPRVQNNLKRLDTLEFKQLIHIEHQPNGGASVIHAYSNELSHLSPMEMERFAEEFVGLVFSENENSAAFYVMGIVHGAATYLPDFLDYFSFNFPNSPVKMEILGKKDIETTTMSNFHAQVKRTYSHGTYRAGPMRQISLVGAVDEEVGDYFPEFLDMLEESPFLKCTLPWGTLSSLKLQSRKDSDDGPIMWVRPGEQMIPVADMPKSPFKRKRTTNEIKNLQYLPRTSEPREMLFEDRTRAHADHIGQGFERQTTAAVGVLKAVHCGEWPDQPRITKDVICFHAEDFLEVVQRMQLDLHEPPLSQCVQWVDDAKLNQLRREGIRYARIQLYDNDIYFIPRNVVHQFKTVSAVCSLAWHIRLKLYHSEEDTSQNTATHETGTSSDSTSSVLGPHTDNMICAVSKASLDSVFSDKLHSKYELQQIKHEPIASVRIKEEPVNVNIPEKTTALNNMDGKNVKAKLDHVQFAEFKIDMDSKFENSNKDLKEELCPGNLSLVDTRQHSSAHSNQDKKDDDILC

[5] = biological target: T4, cysteines in MDA-MB-231 and Ramos cells (Homo sapiens, UniProt Q8IZ73); conditions: 200 μM, insitu
T4 sequence (Q8IZ73 1-545): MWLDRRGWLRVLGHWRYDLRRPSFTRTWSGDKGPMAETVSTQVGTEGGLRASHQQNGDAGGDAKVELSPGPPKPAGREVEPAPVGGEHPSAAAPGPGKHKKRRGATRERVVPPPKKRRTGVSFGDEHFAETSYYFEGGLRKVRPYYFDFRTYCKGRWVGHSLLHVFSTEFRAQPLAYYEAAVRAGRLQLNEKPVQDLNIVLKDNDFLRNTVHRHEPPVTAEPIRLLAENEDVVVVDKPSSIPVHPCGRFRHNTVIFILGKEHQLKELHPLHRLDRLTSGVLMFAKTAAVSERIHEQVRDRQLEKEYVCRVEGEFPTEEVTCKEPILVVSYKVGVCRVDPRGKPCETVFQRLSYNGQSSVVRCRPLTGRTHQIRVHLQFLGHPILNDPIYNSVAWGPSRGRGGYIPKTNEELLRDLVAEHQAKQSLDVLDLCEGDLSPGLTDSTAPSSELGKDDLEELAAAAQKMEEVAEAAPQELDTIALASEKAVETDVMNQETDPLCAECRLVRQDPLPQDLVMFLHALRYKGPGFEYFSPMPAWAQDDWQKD

[6] = biological target: T5, cysteines in MDA-MB-231 and Ramos cells (Homo sapiens, UniProt Q9NUI1); conditions: for isoTOP-ABPP ratio Q9NUI1_C22: 200 μM, insitu, 231
T5 sequence (Q9NUI1 1-292): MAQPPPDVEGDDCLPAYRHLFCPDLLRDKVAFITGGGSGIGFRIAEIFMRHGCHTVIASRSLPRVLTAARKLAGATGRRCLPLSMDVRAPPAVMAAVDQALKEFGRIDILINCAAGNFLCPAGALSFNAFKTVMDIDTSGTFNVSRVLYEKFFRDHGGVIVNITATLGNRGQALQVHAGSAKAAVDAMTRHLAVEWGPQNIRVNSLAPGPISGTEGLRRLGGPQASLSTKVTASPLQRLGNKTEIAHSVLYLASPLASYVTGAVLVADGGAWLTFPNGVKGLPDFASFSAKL

Cc1ccc(C=C(C#N)C(=O)NCCN2CCOCC2)cc1 [compound 41]
isoTOP-ABPP ratio Q9BR61_C267 [1]; 231: 0.5 | isoTOP-ABPP ratio Q99798_C385 [2]: 0.1 | isoTOP-ABPP ratio Q8N2W9_C326 [3]; 231: 0.8

O=C(CCl)NC(=O)NC12CC3CC(CC(C3)C1)C2 [compound 12]
isoTOP-ABPP ratio, cysteine Q6PCB5_C280 [4]; 231: 20.0

O=C(CCl)NCCc1c[nH]c2ccccc12 [compound 13]
isoTOP-ABPP ratio, cysteine Q9BR61_C267 [1]; 231: 1.1 | isoTOP-ABPP ratio, cysteine Q6PCB5_C280 ([4]; ramos): 0.8 | isoTOP-ABPP ratio, cysteine Q8N2W9_C326 ([3]; ramos): 20.0

O=C(CCl)NC12CC3CC(CC(C3)C1)C2 [compound 21]
isoTOP-ABPP ratio, cysteine Q99798_C385 [2]: 2.0 | isoTOP-ABPP ratio, cysteine Q8IZ73_C246 [5]; 231: 1.8 | isoTOP-ABPP ratio, cysteine Q8N2W9_C326 [3]; 231: 1.0

Cn1cc(S(=O)(=O)N2CCOCC2)cc1C(=O)NC(=O)CCl [compound 11]
isoTOP-ABPP ratio, cysteine Q9NUI1_C22 ([6]; 100 μM in situ 231): 2.1

C=CC(=O)Nc1cc(F)c(N2CCN(C(=O)OC(C)(C)C)CC2)c(F)c1 [compound 38]
isoTOP-ABPP ratio Q8IZ73_C246 [5]; 231: 1.7 | isoTOP-ABPP ratio Q8N2W9_C326 [3]; 231: 0.9

CC1CCc2ccccc2N1C(=O)CCl (stereo not shown) [compound 45]
isoTOP-ABPP ratio Q9NUI1_C22 [6]: 17.0

CC(C)CCOCCNC(=O)CCl [compound 27]
isoTOP-ABPP ratio Q6PCB5_C280 [4]; 231: 1.0

O=C(CCl)N1CCN(S(=O)(=O)c2ccccc2F)CC1 [compound 10]
isoTOP-ABPP ratio, cysteine Q99798_C385 [2]: 0.7 | isoTOP-ABPP ratio, cysteine Q8N2W9_C326 [3]; 231: 4.5

O=C(CCl)N1CCN(CC(=O)N2CCOCC2)CC1 [compound 29]
isoTOP-ABPP ratio Q9BR61_C267 ([1]; ramos): 2.5 | isoTOP-ABPP ratio Q6PCB5_C280 ([4]; ramos): 1.4

C=CC(=O)N(Cc1cccnc1)c1cc(C(F)(F)F)cc(C(F)(F)F)c1 [compound 31]
isoTOP-ABPP ratio Q9NUI1_C22 [6]: 0.7 | isoTOP-ABPP ratio Q8IZ73_C246 [5]; 231: 0.4 | isoTOP-ABPP ratio Q8IZ73_C246 ([5]; ramos): 1.0
